From ChEMBL document CHEMBL1128608, “Syntheses and biological properties of novel aza-podophyllotoxin analogs prossessing pronounced antitumor activity” (Bioorg Med Chem Lett, 1995) come the findings set out here.

Structures are written as SMILES. Values after ≈ are worked out from the molar mass of the structure shown.

Data set [1] deals with Mus musculus. Nature of the data set: Assayed for antitumor activity against P388 leukemia in mice at a dose of 10 mg/kg/injection. The class given is functional.
Data set [2] has as its system Mus musculus. Put plainly: Assayed for antitumor activity against P388 leukemia in mice at a dose of 250 mg/kg/injection; Toxic, T/C<85%. The class given is toxicity, organism-based. The note with it: in vivo.
In data set [3] the test system is Mus musculus. Put plainly: Assayed for antitumor activity against P388 leukemia in mice at a dose of 100 mg/kg/injection. The class given is functional.
For the next data set, the system named is L1210. Put plainly: Tested for in vitro cytotoxicity against L1210 murine leukemia cells in mice. The class given is functional, cell-based. The note with it: Mus musculus.
Data set [4] deals with Mus musculus. Put plainly: Assayed for antitumor activity against P388 leukemia in mice at a dose of 5 mg/kg/injection. The format is functional.
In data set [5] the test system is Mus musculus. Put plainly: Assayed for antitumor activity against P388 leukemia in mice at a dose of 25 mg/kg/injection. The class given is functional.
The test system of data set [6] is Mus musculus. Nature of the data set: Assayed for antitumor activity against P388 leukemia in mice at a dose of 50 mg/kg/injection. The class given is functional.
In data set [7] the test system is Mus musculus. Put plainly: Assayed for antitumor activity against P388 leukemia in mice at a dose of 100 mg/kg/injection; Toxic, T/C<85%. The class given is toxicity, organism-based. The note with it: in vivo.
The test system of data set [8] is Mus musculus. Nature of the data set: Assayed for antitumor activity against P388 leukemia in mice at a dose of 250 mg/kg/injection. The format is functional.
For data set [9], the system named is Mus musculus. Nature of the data set: Tested for antitumor activity against vincristine-resistant P388 leukemia (P388/VCR) in mice, at a dose of 10 mg/kg given intraperitoneally; Toxic, T/C<85%. On the set-up: dose 10 mg/kg, route intraperitoneal. The note with it: in vivo, ip. The format is toxicity, organism-based.
A short description of data set [10]: Evaluated for the inhibition of microtubule assembly prepared from bovine brain. The format is functional, Bos taurus.
In data set [11] the test system is Mus musculus. Put plainly: Tested for antitumor activity against vincristine-resistant P388 leukemia (P388/VCR) in mice, at a dose of 5 mg/kg given intraperitoneally. The format is functional. The note with it: route intraperitoneal.
For data set [12], the system named is Mus musculus. Put plainly: Tested for antitumor activity against B16 melanoma in mice, at a dose of 50 mg/kg given intraperitoneally. The format is functional. The note with it: route intraperitoneal.
The subject of data set [13] is Mus musculus. Put plainly: Tested for antitumor activity against B16 melanoma in mice, at a dose of 25 mg/kg given intraperitoneally. The format is functional. The note with it: route intraperitoneal.
In data set [14] the test system is Mus musculus. Put plainly: Assayed for antitumor activity against P388 leukemia in mice at a dose of 2.5 mg/kg/injection. The format is functional.
The test system of data set [15] is Mus musculus. Put plainly: Tested for antitumor activity against B16 melanoma in mice at a dose of 25 mg/kg given intraperitoneally. The class given is functional. The note with it: route intraperitoneal.
Data set [16] deals with Mus musculus. Nature of the data set: Tested for antitumor activity against vincristine-resistant P388 leukemia (P388/VCR) in mice at a dose 5 mg/kg, given intraperitoneally; Toxic, T/C<85%. The class given is toxicity, organism-based. Details: dose 5 mg/kg, route intraperitoneal. The note with it: in vivo, ip.
Data set [17] has as its system Mus musculus. Nature of the data set: Assayed for antitumor activity against P388 leukemia in mice at a dose of 50 mg/kg/injection; Toxic, T/C<85%. The class given is toxicity, organism-based. The note with it: in vivo.
Data set [18] has as its system Mus musculus. Put plainly: Tested for antitumor activity against vincristine-resistant P388 leukemia (P388/VCR) in mice at a dose 1 mg/kg, given intraperitoneally. The format is functional. The note with it: route intraperitoneal.
In data set [19] the test system is Mus musculus. Put plainly: Tested for antitumor activity against vincristine-resistant P388 leukemia (P388/VCR) in mice at a dose 2.5 mg/kg, given intraperitoneally. The class given is functional. The note with it: route intraperitoneal.
The subject of data set [20] is Mus musculus. Put plainly: Tested for antitumor activity against vincristine-resistant P388 leukemia (P388/VCR) in mice, at a dose of 10 mg/kg given intraperitoneally. The class given is functional. The note with it: route intraperitoneal.
The test system of data set [21] is Mus musculus. Nature of the data set: Tested for antitumor activity against vincristine-resistant P388 leukemia (P388/VCR) in mice, at a dose of 2.5 mg/kg given intraperitoneally. The note with it: route intraperitoneal. The class given is functional.
In data set [22] the test system is Mus musculus. Nature of the data set: Tested for antitumor activity against vincristine-resistant P388 leukemia (P388/VCR) in mice, at a dose of 25 mg/kg given intraperitoneally. The class given is functional. The note with it: route intraperitoneal.
For data set [23], the system named is Mus musculus. Put plainly: Tested for antitumor activity against B16 melanoma in mice, at a dose of 100 mg/kg given intraperitoneally. The class given is functional. The note with it: route intraperitoneal.

For orientation: T/C means the result in the treated group divided by that in the control group, in per cent. The IC50 is the midpoint of a concentration-inhibition curve. Read a low IC50 as higher potency. With `COc1cc([C@@H]2c3cc4c(cc3N[C@@H]3COC(=O)N23)OCCO4)cc(OC)c1OC`, the T/C with Mus musculus [1] is on record as 131%; with Mus musculus [2], below 85%; with Mus musculus [3], 233%; in the data set on Mus musculus [4] it was 119%; in the data set on Mus musculus [5] it was 153%; in the data set with Mus musculus [6], 165%. 0.052 µg/mL (≈ 0.125 µM) corresponded to half-maximal inhibition with L1210 (IC50).

Regarding `COc1cc(OC)cc([C@@H]2c3cc4c(cc3N[C@@H]3COC(=O)N23)OCO4)c1`, the T/C in the data set with Mus musculus [1] was 123%; with Mus musculus [3], 214%; in the data set on Mus musculus [5], 137%; in the data set on Mus musculus [6] it was 159%. The compound further displayed an IC50 in the data set on L1210 of 0.22 µg/mL (≈ 0.594 µM).

Regarding `COc1cc(OC)cc([C@@H]2c3cc4c(cc3N[C@H]3COC(=O)N23)OCCO4)c1`, the T/C is on record as 131% in the data set with Mus musculus [1]; 114% with Mus musculus [4]; 147% in the data set with Mus musculus [5]; below 85% in the data set on Mus musculus [7]; 199% in the data set with Mus musculus [6]. Moreover, the IC50 in the data set with L1210 is 0.028 µg/mL (≈ 0.0728 µM).

On to `COc1cc([C@@H]2c3cc4c(cc3N(N)[C@@H]3COC(=O)N23)OCO4)cc(OC)c1OC`, for which the T/C in the data set on Mus musculus [1] is 111%; in the data set on Mus musculus [3] it was 147%; in the data set with Mus musculus [8], 161%; in the data set with Mus musculus [5], 122%; with Mus musculus [6], 147%. This compound also returned a half-inhibitory concentration (IC50) in the data set on L1210 of 0.75 µg/mL (≈ 1.81 µM).

On to `COc1cc([C@@H]2c3cc4c(cc3N[C@H]3COC(=O)N23)OCCO4)cc(OC)c1OC`, for which the T/C is given as 144% with Mus musculus [1]; 139% in the data set on Mus musculus [4]; 156% in the data set with Mus musculus [5]; below 85% in the data set with Mus musculus [7]; 177% in the data set with Mus musculus [6]. The IC50 in the data set on L1210 is 0.055 µg/mL (≈ 0.133 µM).

Regarding `COc1cc(C2c3cc4c(cc3N=C3COC(=O)N32)OCO4)cc(OC)c1OC` (configuration not stated), the T/C in the data set with Mus musculus [1] turned out to be 109%; with Mus musculus [3] it was 109%; in the data set with Mus musculus [8], 144%; in the data set with Mus musculus [4], 104%; in the data set on Mus musculus [5] it was 109%; in the data set with Mus musculus [6], 111%. In the data set on L1210, this compound had an IC50 of 0.54 µg/mL (≈ 1.36 µM).

Regarding `COc1cc([C@@H]2c3cc4c(cc3N[C@@H]3COC(=O)N23)OCO4)cc(OC)c1OC`, the T/C with Mus musculus [1] is given as 144%; in the data set on Mus musculus [9], below 85%; in the data set with Mus musculus [11], 137%; with Mus musculus [12], 190%; in the data set with Mus musculus [13], 163%; in the data set on Mus musculus [4], 117%. The T/C in the data set with Mus musculus [5] was found to be 161%; in the data set on Mus musculus [6], 239%. Besides, the IC50 in data set [10] is 1.7 µg/mL (≈ 4.25 µM); in the data set on L1210 it was 0.42 µg/mL (≈ 1.05 µM).

With `COc1cc([C@@H]2c3cc4c(cc3[C@H](O)[C@H]3COC(=O)[C@H]23)OCO4)cc(OC)c1OC` [PODOFILOX], the T/C in the data set on Mus musculus [14] is reported as 111%; with Mus musculus [15] it was 110%; in the data set with Mus musculus [16], below 85%; in the data set on Mus musculus [1] it was 109%; with Mus musculus [17] it was below 85%; with Mus musculus [18], 122%. The T/C stood at 111% in the data set with Mus musculus [5] and 125% in the data set with Mus musculus [19]. Further, the IC50 in [10] came to 0.13 µg/mL (≈ 0.314 µM); in the data set with L1210, 0.0036 µg/mL (≈ 0.00869 µM).

Consider `COc1cc(OC)cc([C@@H]2c3cc4c(cc3N[C@@H]3COC(=O)N23)OCCO4)c1`, for which the T/C was 133% in the data set with Mus musculus [1]; below 85% in the data set on Mus musculus [2]; 94% in the data set on Mus musculus [3]; 117% in the data set with Mus musculus [4]; 150% with Mus musculus [5]; 172% in the data set with Mus musculus [6]. In the data set with L1210, this compound had an IC50 of 0.08 µg/mL (≈ 0.208 µM).

Turning to `COc1cc([C@@H]2c3cc4c(cc3N(N)[C@H]3COC(=O)N23)OCO4)cc(OC)c1OC`, the T/C is listed as 109% with Mus musculus [1]; below 85% with Mus musculus [2]; 153% in the data set on Mus musculus [3]; 104% in the data set on Mus musculus [4]; 114% with Mus musculus [5]; 134% in the data set on Mus musculus [6]. Further, in the data set with L1210, inhibition was half-maximal at 0.09 µg/mL (≈ 0.217 µM) (IC50).

For the compound `COc1cc([C@@H]2c3cc4c(cc3N[C@H]3COC(=O)N23)OCO4)cc(OC)c1OC`, the T/C in the data set on Mus musculus [14] is 111%; in the data set with Mus musculus [20], 152%; with Mus musculus [21], 113%; with Mus musculus [1], 128%; in the data set with Mus musculus [3], 172%; with Mus musculus [11], 129%. Moreover, the T/C with Mus musculus [8] is on record as above 326%; with Mus musculus [12], 153%; in the data set with Mus musculus [4], 124%; in the data set on Mus musculus [22], 152%; in the data set on Mus musculus [5], 150%; in the data set with Mus musculus [23], 197%. The compound further yielded a T/C in the data set with Mus musculus [6] of 161%. Moreover, the IC50 in data set [10] came out at 0.42 µg/mL (≈ 1.05 µM); in the data set on L1210 it was 0.05 µg/mL (≈ 0.125 µM).

For `COc1cc(OC)cc([C@@H]2c3cc4c(cc3N[C@H]3COC(=O)N23)OCO4)c1`, the T/C was 110% in the data set with Mus musculus [1]; 206% in the data set with Mus musculus [3]; 206% with Mus musculus [8]; 139% in the data set on Mus musculus [5]; 156% with Mus musculus [6]. In the data set on L1210, this compound had an IC50 of 0.16 µg/mL (≈ 0.432 µM).
